# Laboratory results as given in PubChem BioAssay (NCI).
#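 Compound exposure: 48 hours, 5 concentrations, 96-well plates. TGI: total growth inhibition.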 Square brackets hold non-standard residues; d marks the D form. Peptide text beside a SMILES is read from it. * marks the point of attachment. Boc = CC(C)(C)OC(=O)*; OBn = c1ccc(CO*)cc1
# Legend:
# Experiment in all cases: DTP human tumour cell line panel, 48 h
# [1] = tested on: SNB-19 CNS
# [2] = tested on: SK-MEL-5 melanoma
# [3] = tested on: SW-620 colon
# [4] = tested on: HOP-92 NSCLC
# [5] = tested on: BT-549 breast
# [6] = tested on: HL-60(TB) leukemia
# [7] = tested on: U251 CNS
# [8] = tested on: MDA-N
# [9] = tested on: SF-295 CNS
# [10] = tested on: CAKI-1 renal
# [11] = tested on: OVCAR-4 ovarian
# [12] = tested on: HCT-15 colon
# [13] = tested on: ACHN renal
# [14] = tested on: HCT-116 colon
# [15] = tested on: SF-539 CNS
# [16] = tested on: MOLT-4 leukemia
# [17] = tested on: M14 melanoma
# [18] = tested on: HT29 colon
# [19] = tested on: SK-MEL-28 melanoma
# [20] = tested on: RXF 393 renal
# [21] = tested on: SR leukemia
# [22] = tested on: T-47D breast
# [23] = tested on: K-562 leukemia
# [24] = tested on: UACC-257 melanoma
# [25] = tested on: EKVX NSCLC
# [26] = tested on: SN12C renal
# [27] = tested on: PC-3 prostate
# [28] = tested on: OVCAR-8 ovarian
# [29] = tested on: A549 NSCLC
# [30] = tested on: MDA-MB-435
# [31] = tested on: NCI-H23 lung
# [32] = tested on: SK-MEL-2 melanoma
# [33] = tested on: COLO 205 colon
# [34] = tested on: MCF7 breast
# [35] = tested on: DU-145 prostate
# [36] = tested on: CCRF-CEM leukemia
# [37] = tested on: OVCAR-5 ovarian
# [38] = tested on: NCI/ADR-RES ovarian
# [39] = tested on: 786-0 renal
# [40] = tested on: LOX IMVI melanoma
# [41] = tested on: NCI-H226 lung
# [42] = tested on: SNB-75 CNS
# [43] = tested on: MALME-3M melanoma
# [44] = tested on: SF-268 CNS
# [45] = tested on: KM12 colon
# [46] = tested on: TK-10 renal
# [47] = tested on: SK-OV-3 ovarian
# [48] = tested on: IGROV1 ovarian
# [49] = tested on: MDA-MB-231 breast
# [50] = tested on: HS 578T breast
# [51] = tested on: UACC-62 melanoma
# [52] = tested on: NCI-H522 lung
# [53] = tested on: UO-31 renal
# [54] = tested on: RPMI-8226 leukemia
# [55] = tested on: NCI-H460 lung
# [56] = tested on: HOP-62 NSCLC
# [57] = tested on: OVCAR-3 ovarian
# [58] = tested on: A498 renal
smiles,measurement,setting,value
C[C@@H](NC(=O)CNC(=O)OC(C)(C)C)C(=O)N[C@@H](Cc1ccccc1)C(=O)OCc1ccccc1 (Boc-Gly-[dA]-Phe-OBn),TGI,[1],> 100 µM
same,TGI,[2],42.2 µM
same,TGI,[3],> 100 µM
same,TGI,[4],45.3 µM
same,TGI,[5],> 100 µM
same,TGI,[6],> 100 µM
same,TGI,[7],> 100 µM
same,TGI,[8],> 100 µM
same,TGI,[9],> 100 µM
same,TGI,[10],> 100 µM
same,TGI,[11],> 100 µM
same,TGI,[12],> 100 µM
same,TGI,[13],> 100 µM
same,TGI,[14],> 100 µM
same,TGI,[15],> 100 µM
same,TGI,[16],88.1 µM
same,TGI,[17],44.7 µM
same,TGI,[18],> 100 µM
same,TGI,[19],39.4 µM
same,TGI,[20],> 100 µM
same,TGI,[21],88.9 µM
same,TGI,[22],> 100 µM
same,TGI,[23],64.4 µM
same,TGI,[24],> 100 µM
same,TGI,[25],> 100 µM
same,TGI,[26],> 100 µM
same,TGI,[27],> 100 µM
same,TGI,[28],> 100 µM
same,TGI,[29],> 100 µM
same,TGI,[30],> 100 µM
same,TGI,[31],> 100 µM
same,TGI,[32],> 100 µM
same,TGI,[33],32.7 µM
same,TGI,[34],> 100 µM
same,TGI,[35],> 100 µM
same,TGI,[36],67 µM
same,TGI,[37],> 100 µM
same,TGI,[38],> 100 µM
same,TGI,[39],> 100 µM
same,TGI,[40],58 µM
same,TGI,[41],> 100 µM
same,TGI,[42],> 100 µM
same,TGI,[43],32.6 µM
same,TGI,[44],> 100 µM
same,TGI,[45],> 100 µM
same,TGI,[46],> 100 µM
same,TGI,[47],> 100 µM
same,TGI,[48],> 100 µM
same,TGI,[49],> 100 µM
same,TGI,[50],71.2 µM
same,TGI,[51],> 100 µM
same,TGI,[52],80.4 µM
same,TGI,[53],> 100 µM
COC(=O)C(Cc1c[nH]c2ccccc12)NP(=O)(O)OCC1OC(n2ccc(N)nc2=O)C(O)C1O (centres undefined),TGI,[1],> 100 µM
same,TGI,[2],> 100 µM
same,TGI,[3],> 100 µM
same,TGI,[4],> 100 µM
same,TGI,[5],> 100 µM
same,TGI,[6],> 100 µM
same,TGI,[7],> 100 µM
same,TGI,[8],> 100 µM
same,TGI,[9],> 100 µM
same,TGI,[10],> 100 µM
same,TGI,[11],> 100 µM
same,TGI,[12],> 100 µM
same,TGI,[13],> 100 µM
same,TGI,[14],> 100 µM
same,TGI,[15],> 100 µM
same,TGI,[16],> 100 µM
same,TGI,[17],> 100 µM
same,TGI,[54],> 100 µM
same,TGI,[18],> 100 µM
same,TGI,[19],> 100 µM
same,TGI,[21],> 100 µM
same,TGI,[22],> 100 µM
same,TGI,[23],> 100 µM
same,TGI,[24],> 100 µM
same,TGI,[25],> 100 µM
same,TGI,[26],> 100 µM
same,TGI,[27],> 100 µM
same,TGI,[28],> 100 µM
same,TGI,[29],> 100 µM
same,TGI,[55],> 100 µM
same,TGI,[30],> 100 µM
same,TGI,[56],> 100 µM
same,TGI,[31],> 100 µM
same,TGI,[33],> 100 µM
same,TGI,[34],> 100 µM
same,TGI,[35],> 100 µM
same,TGI,[36],> 100 µM
same,TGI,[37],> 100 µM
same,TGI,[38],> 100 µM
same,TGI,[39],> 100 µM
same,TGI,[40],> 100 µM
same,TGI,[41],> 100 µM
same,TGI,[42],> 100 µM
same,TGI,[43],> 100 µM
same,TGI,[44],> 100 µM
same,TGI,[45],> 100 µM
same,TGI,[46],> 100 µM
same,TGI,[57],> 100 µM
same,TGI,[48],> 100 µM
same,TGI,[49],> 100 µM
same,TGI,[50],> 100 µM
same,TGI,[51],> 100 µM
same,TGI,[58],> 100 µM
same,TGI,[52],> 100 µM
same,TGI,[53],> 100 µM
COc1cc2c(c(O)c1OC)C(=O)C1CCC(=O)N1C2c1cccc2ccccc12 (centres undefined),TGI,[1],> 100 µM
same,TGI,[2],> 100 µM
same,TGI,[3],> 100 µM
same,TGI,[4],89.5 µM
same,TGI,[5],> 100 µM
same,TGI,[6],63.9 µM
same,TGI,[7],> 100 µM
same,TGI,[8],> 100 µM
same,TGI,[9],> 100 µM
same,TGI,[10],> 100 µM
same,TGI,[11],> 100 µM
same,TGI,[12],> 100 µM
same,TGI,[13],> 100 µM
same,TGI,[14],> 100 µM
same,TGI,[15],> 100 µM
same,TGI,[16],89.6 µM
same,TGI,[17],> 100 µM
same,TGI,[54],81.2 µM
same,TGI,[18],> 100 µM
same,TGI,[19],> 100 µM
same,TGI,[20],> 100 µM
same,TGI,[21],> 100 µM
same,TGI,[22],> 100 µM
same,TGI,[23],59.2 µM
same,TGI,[24],> 100 µM
same,TGI,[25],> 100 µM
same,TGI,[26],> 100 µM
same,TGI,[27],> 100 µM
same,TGI,[28],> 100 µM
same,TGI,[29],> 100 µM
same,TGI,[55],> 100 µM
same,TGI,[30],> 100 µM
same,TGI,[56],> 100 µM
same,TGI,[31],> 100 µM
same,TGI,[32],> 100 µM
same,TGI,[33],32.8 µM
same,TGI,[34],> 100 µM
same,TGI,[35],> 100 µM
same,TGI,[36],77 µM
same,TGI,[37],> 100 µM
same,TGI,[38],> 100 µM
same,TGI,[39],> 100 µM
same,TGI,[41],> 100 µM
same,TGI,[42],> 100 µM
same,TGI,[43],> 100 µM
same,TGI,[44],> 100 µM
same,TGI,[45],> 100 µM
same,TGI,[57],> 100 µM
same,TGI,[47],> 100 µM
same,TGI,[48],> 100 µM
same,TGI,[49],> 100 µM
same,TGI,[50],> 100 µM
same,TGI,[51],> 100 µM
same,TGI,[58],> 100 µM
same,TGI,[52],> 100 µM
same,TGI,[53],> 100 µM
